Each structure is given as a SMILES string.

Melanocortin receptor 3, sequence (P41968 whole entry): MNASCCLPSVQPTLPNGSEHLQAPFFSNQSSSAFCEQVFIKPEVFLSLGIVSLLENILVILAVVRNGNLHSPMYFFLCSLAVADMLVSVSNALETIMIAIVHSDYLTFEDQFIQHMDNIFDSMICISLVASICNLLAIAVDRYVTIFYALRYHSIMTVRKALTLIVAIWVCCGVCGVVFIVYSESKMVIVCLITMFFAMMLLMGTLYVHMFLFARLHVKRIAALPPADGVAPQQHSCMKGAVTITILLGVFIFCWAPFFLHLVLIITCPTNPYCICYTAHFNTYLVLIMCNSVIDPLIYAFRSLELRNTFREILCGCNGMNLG

For the first assay, the system named is HEK293. Description: Inhibition of alpha-MSH-stimulated cAMP production at 10 uM in HEK cell line. Type of assay: functional. Particulars: Homo sapiens.
The molecule `CC(NC1CCCNC1)c1ccccc1N1CCN(C(=O)[C@@H](Cc2ccc(Cl)cc2)NC(=O)c2cnc3ccccc3c2)CC1` (some centres undefined) came in with an inhibition at 10 µM of 38%.

The target in another assay is T1, Melanocortin receptor 4 (Homo sapiens, UniProt P32245). Description: Binding affinity towards human melanocortin 4 receptor expressed in HEK 293 cells using [125I]NDP-MSH. The assay is classed as cell-based, HEK293.
T1 sequence (P32245 whole entry): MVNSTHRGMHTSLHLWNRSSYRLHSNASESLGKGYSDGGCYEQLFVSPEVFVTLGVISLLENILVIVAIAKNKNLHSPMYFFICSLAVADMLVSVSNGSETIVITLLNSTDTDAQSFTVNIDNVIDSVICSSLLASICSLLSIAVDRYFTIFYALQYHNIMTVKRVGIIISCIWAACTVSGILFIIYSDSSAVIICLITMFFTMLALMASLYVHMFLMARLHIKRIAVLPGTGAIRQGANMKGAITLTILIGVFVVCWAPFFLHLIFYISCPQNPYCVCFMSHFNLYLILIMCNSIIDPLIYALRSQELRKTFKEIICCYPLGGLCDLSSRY
Conditions: not given
In turn, `CC(NC1CCCNC1)c1ccccc1N1CCN(C(=O)[C@@H](Cc2ccc(Cl)cc2)NC(=O)c2cnc3ccccc3c2)CC1` (some centres undefined) registered a Ki of 0.0048 µM. The molecule `CC(NC1CCCNC1)c1ccccc1N1CCN(C(=O)[C@@H](Cc2ccc(Cl)cc2)NC(=O)C(N)Cc2ccccn2)CC1` (some centres undefined) returned a Ki of 0.056 µM. Take `O=C(N[C@H](Cc1ccc(Cl)cc1)C(=O)N1CCN(c2ccccc2CN2CCCNCC2)CC1)[C@H]1Cc2ccccc2CN1`: affinity was put at a Ki of 0.078 µM.

Turning to `CC(NCCN1CCOCC1)c1ccccc1N1CCN(C(=O)[C@@H](Cc2ccc(Cl)cc2)NC(=O)[C@H]2Cc3ccccc3CN2)CC1` (some centres undefined), the affinity corresponds to a Ki of 0.087 µM. The molecule `CC(NC1CCCNC1)c1ccccc1N1CCN(C(=O)[C@@H](Cc2ccc(Cl)cc2)NC(=O)C2(N)CCc3ccccc3C2)CC1` (some centres undefined) came in with a Ki of 0.01 µM. Same read-out and setting: the result for `O=C(N[C@H](Cc1ccc(Cl)cc1)C(=O)N1CCN(c2ccccc2CNCCCN2CCCCCC2)CC1)[C@H]1Cc2ccccc2CN1` reads 0.16 µM; that for `CC(NC1CCCNC1)c1ccccc1N1CCN(C(=O)[C@@H](Cc2ccc(Cl)cc2)NC(=O)CC2NCCc3ccccc32)CC1` (some centres undefined), 0.0063 µM. As to `CC(NC1CCCNC1)c1ccccc1N1CCN(C(=O)[C@@H](Cc2ccc(Cl)cc2)NC(=O)Cc2ccccc2)CC1` (some centres undefined), the Ki came out at 0.03 µM. The same measure, in the same setting: the result for `CC(NC1CCCNC1)c1ccccc1N1CCN(C(=O)[C@@H](Cc2ccc(Cl)cc2)NC(=O)C(N)Cc2ccccc2)CC1` (some centres undefined) reads 0.052 µM; that for `O=C(N[C@H](Cc1ccc(Cl)cc1)C(=O)N1CCN(c2ccccc2CN2CCOCC2)CC1)[C@H]1Cc2ccccc2CN1`, 0.053 µM; that for `CN1CCN(Cc2ccccc2N2CCN(C(=O)[C@@H](Cc3ccc(Cl)cc3)NC(=O)[C@H]3Cc4ccccc4CN3)CC2)CC1`, 0.24 µM.

In turn, `CC(NC1CCCNC1)c1ccccc1N1CCN(C(=O)[C@@H](Cc2ccc(Cl)cc2)NC(=O)C2(N)Cc3ccccc3C2)CC1` (some centres undefined) yielded a Ki of 0.024 µM.

The molecule `O=C(N[C@H](Cc1ccc(Cl)cc1)C(=O)N1CCN(c2ccccc2CNCCN2CCOCC2)CC1)[C@H]1Cc2ccccc2CN1` gave a Ki of 0.12 µM. With `CC(NC1CCCNC1)c1ccccc1N1CCN(C(=O)[C@@H](Cc2ccc(Cl)cc2)NC(=O)C2(N)CCc3ccccc32)CC1` (some centres undefined), the affinity, expressed as Ki, was 0.047 µM. On to `CC(NC1CCCNC1)c1ccccc1N1CCN(C(=O)[C@@H](Cc2ccc(Cl)cc2)NC(=O)C(N)C2CCc3ccccc32)CC1` (some centres undefined), for which the Ki stood at 0.12 µM. The same measure, in the same setting: the result for `N[C@H]1CCCC[C@@H]1NCc1ccccc1N1CCN(C(=O)[C@@H](Cc2ccc(Cl)cc2)NC(=O)[C@H]2Cc3ccccc3CN2)CC1` reads 0.089 µM. On to `CC(NC1CCCNC1)c1ccccc1N1CCN(C(=O)[C@@H](Cc2ccc(Cl)cc2)NC(=O)C(N)c2ccccc2)CC1` (some centres undefined), for which the Ki was determined as 0.034 µM. `CN(C)CCN(Cc1ccccc1)Cc1ccccc1N1CCN(C(=O)[C@@H](Cc2ccc(Cl)cc2)NC(=O)[C@H]2Cc3ccccc3CN2)CC1` gave a Ki of 0.022 µM. In the case of `O=C(N[C@H](Cc1ccc(Cl)cc1)C(=O)N1CCN(c2ccccc2CNCCCN2CCCC2=O)CC1)[C@H]1Cc2ccccc2CN1`, the Ki amounted to 0.27 µM. `O=C(N[C@H](Cc1ccc(Cl)cc1)C(=O)N1CCN(c2ccccc2CNc2ccncc2)CC1)[C@H]1Cc2ccccc2CN1` showed a Ki of 0.036 µM. Molecule `CCOC(=O)CN(C)Cc1ccccc1N1CCN(C(=O)[C@@H](Cc2ccc(Cl)cc2)NC(=O)[C@H]2Cc3ccccc3CN2)CC1` yielded a Ki of 0.14 µM.

Molecule `CC(NC1CCCNC1)c1ccccc1N1CCN(C(=O)[C@@H](Cc2ccc(Cl)cc2)NC(=O)CCc2ccccc2)CC1` (some centres undefined) returned a Ki of 0.033 µM.

On to `O=C(N[C@H](Cc1ccc(Cl)cc1)C(=O)N1CCN(c2ccccc2CNCCCn2ccnc2)CC1)[C@H]1Cc2ccccc2CN1`, for which the Ki came out at 0.37 µM. The same measure, in the same setting: with `CC(C)COCCCNCc1ccccc1N1CCN(C(=O)[C@@H](Cc2ccc(Cl)cc2)NC(=O)[C@H]2Cc3ccccc3CN2)CC1` the figure was 0.11 µM; with `CC(NC1CCCNC1)c1ccccc1N1CCN(C(=O)[C@@H](Cc2ccc(Cl)cc2)NC(=O)C(N)Cc2cccnc2)CC1` (some centres undefined), 0.049 µM; with `CC(C)COCCCNC(C)c1ccccc1N1CCN(C(=O)[C@@H](Cc2ccc(Cl)cc2)NC(=O)[C@H]2Cc3ccccc3CN2)CC1` (some centres undefined), 0.041 µM.

Another assay concerns the target T1, Melanocortin receptor 4. Description: Inhibitory concentration against Melanocortin 4 receptor.
Conditions: not given
The molecule `CC(NC1CCCNC1)c1ccccc1N1CCN(C(=O)[C@@H](Cc2ccc(Cl)cc2)NC(=O)c2cnc3ccccc3c2)CC1` (some centres undefined) returned an IC50 of 0.3 µM.

The next assay has as its target Melanocortin receptor 3 (Homo sapiens, UniProt P41968). Briefly: Binding affinity for human melanocortin 3 receptor.
Conditions: not given
`CC(NC1CCCNC1)c1ccccc1N1CCN(C(=O)[C@@H](Cc2ccc(Cl)cc2)NC(=O)c2cnc3ccccc3c2)CC1` (some centres undefined) had a Ki of 0.63 µM. Turning to `CC(NC1CCCNC1)c1ccccc1N1CCN(C(=O)[C@@H](Cc2ccc(Cl)cc2)NC(=O)CC2NCCc3ccccc32)CC1` (some centres undefined), the Ki was 1.9 µM. Compared with the last molecule, the Ki is about 3-fold higher.

The next assay deals with Melanocortin receptor 5 (Homo sapiens, UniProt P33032). Description: Binding affinity for human melanocortin 5 receptor.
Melanocortin receptor 5, sequence (P33032 whole entry): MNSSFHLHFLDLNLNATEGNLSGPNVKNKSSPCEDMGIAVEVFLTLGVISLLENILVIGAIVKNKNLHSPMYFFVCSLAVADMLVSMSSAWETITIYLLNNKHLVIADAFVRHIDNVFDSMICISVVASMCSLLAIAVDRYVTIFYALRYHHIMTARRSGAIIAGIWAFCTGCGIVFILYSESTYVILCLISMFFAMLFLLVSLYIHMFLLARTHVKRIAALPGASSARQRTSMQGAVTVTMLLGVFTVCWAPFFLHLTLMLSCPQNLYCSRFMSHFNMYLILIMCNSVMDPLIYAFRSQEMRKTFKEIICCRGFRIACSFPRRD
Conditions: not given
For `CC(NC1CCCNC1)c1ccccc1N1CCN(C(=O)[C@@H](Cc2ccc(Cl)cc2)NC(=O)c2cnc3ccccc3c2)CC1` (some centres undefined), the Ki turned out to be 0.6 µM.

Another assay concerns HEK293. Description: Agonist activity in stimulation of cAMP accumulation in HEK 293 cells. The settings on record: Homo sapiens.
Take `CC(NC1CCCNC1)c1ccccc1N1CCN(C(=O)[C@@H](Cc2ccc(Cl)cc2)NC(=O)C(N)Cc2ccccn2)CC1` (some centres undefined): the EC50 was 0.22 µM. On the same count and under the same terms, with `O=C(N[C@H](Cc1ccc(Cl)cc1)C(=O)N1CCN(c2ccccc2CN2CCCNCC2)CC1)[C@H]1Cc2ccccc2CN1` the figure was 0.21 µM.

On to `CC(NCCN1CCOCC1)c1ccccc1N1CCN(C(=O)[C@@H](Cc2ccc(Cl)cc2)NC(=O)[C@H]2Cc3ccccc3CN2)CC1` (some centres undefined), for which the EC50 was determined as 0.23 µM.

The molecule `CC(NC1CCCNC1)c1ccccc1N1CCN(C(=O)[C@@H](Cc2ccc(Cl)cc2)NC(=O)C2(N)CCc3ccccc3C2)CC1` (some centres undefined) displayed an EC50 of 0.33 µM. Molecule `CC(NC1CCCNC1)c1ccccc1N1CCN(C(=O)[C@@H](Cc2ccc(Cl)cc2)NC(=O)[C@H]2Cc3ccccc3CN2)CC1` (some centres undefined) had an EC50 of 0.0047 µM. Same read-out and setting: with `O=C(N[C@H](Cc1ccc(Cl)cc1)C(=O)N1CCN(c2ccccc2CNCCCN2CCCCCC2)CC1)[C@H]1Cc2ccccc2CN1` the figure was 0.57 µM; with `CC(NC1CCCNC1)c1ccccc1N1CCN(C(=O)[C@@H](Cc2ccc(Cl)cc2)NC(=O)CC2NCCc3ccccc32)CC1` (some centres undefined), 0.031 µM; with `CC(NC1CCCNC1)c1ccccc1N1CCN(C(=O)[C@@H](Cc2ccc(Cl)cc2)NC(=O)C(N)Cc2ccccc2)CC1` (some centres undefined), 0.4 µM. The same measure, in the same setting: the result for `O=C(N[C@H](Cc1ccc(Cl)cc1)C(=O)N1CCN(c2ccccc2CN2CCOCC2)CC1)[C@H]1Cc2ccccc2CN1` reads 0.36 µM. As to `CN1CCN(Cc2ccccc2N2CCN(C(=O)[C@@H](Cc3ccc(Cl)cc3)NC(=O)[C@H]3Cc4ccccc4CN3)CC2)CC1`, the EC50 was 0.72 µM. `CC(NC1CCCNC1)c1ccccc1N1CCN(C(=O)[C@@H](Cc2ccc(Cl)cc2)NC(=O)C2(N)Cc3ccccc3C2)CC1` (some centres undefined) displayed an EC50 of 0.44 µM. Compared with the last molecule, the EC50 is about 1.6-fold lower. The molecule `O=C(N[C@H](Cc1ccc(Cl)cc1)C(=O)N1CCN(c2ccccc2CNCCc2cccs2)CC1)[C@H]1Cc2ccccc2CN1` yielded an EC50 of 0.36 µM. `O=C(N[C@H](Cc1ccc(Cl)cc1)C(=O)N1CCN(c2ccccc2CNCCN2CCOCC2)CC1)[C@H]1Cc2ccccc2CN1`: the response was half-maximal at 0.57 µM (EC50). This EC50 is about 1.6-fold higher than that of the molecule before. For the molecule `CN(C)CCC(=O)N[C@H](Cc1ccc(Cl)cc1)C(=O)N1CCC(Cn2cncn2)(C2CCCCC2)CC1`, the EC50 turned out to be 0.04 µM. As to `CC(NC1CCCNC1)c1ccccc1N1CCN(C(=O)[C@@H](Cc2ccc(Cl)cc2)NC(=O)C(N)C2CCc3ccccc32)CC1` (some centres undefined), a half-maximal response (EC50) required 0.63 µM. Regarding `N[C@H]1CCCC[C@@H]1NCc1ccccc1N1CCN(C(=O)[C@@H](Cc2ccc(Cl)cc2)NC(=O)[C@H]2Cc3ccccc3CN2)CC1`, the concentration giving a half-maximal response (EC50) stood at 0.39 µM.

In turn, `CN(C)CCN(Cc1ccccc1)Cc1ccccc1N1CCN(C(=O)[C@@H](Cc2ccc(Cl)cc2)NC(=O)[C@H]2Cc3ccccc3CN2)CC1` registered an EC50 of 0.55 µM. On the same count and under the same terms, with `O=C(N[C@H](Cc1ccc(Cl)cc1)C(=O)N1CCN(c2ccccc2CNCCCN2CCCC2=O)CC1)[C@H]1Cc2ccccc2CN1` the figure was 0.36 µM; with `O=C(N[C@H](Cc1ccc(Cl)cc1)C(=O)N1CCN(c2ccccc2CNc2ccncc2)CC1)[C@H]1Cc2ccccc2CN1`, 0.35 µM. `CCOC(=O)CN(C)Cc1ccccc1N1CCN(C(=O)[C@@H](Cc2ccc(Cl)cc2)NC(=O)[C@H]2Cc3ccccc3CN2)CC1` yielded an EC50 of 0.21 µM.

Consider `O=C(N[C@H](Cc1ccc(Cl)cc1)C(=O)N1CCN(c2ccccc2CNCCCn2ccnc2)CC1)[C@H]1Cc2ccccc2CN1`, for which the midpoint of the response, the EC50, lay at 0.64 µM. With `CC(C)COCCCNCc1ccccc1N1CCN(C(=O)[C@@H](Cc2ccc(Cl)cc2)NC(=O)[C@H]2Cc3ccccc3CN2)CC1`, the response was half-maximal at 0.52 µM (EC50). For the molecule `CC(C)COCCCNC(C)c1ccccc1N1CCN(C(=O)[C@@H](Cc2ccc(Cl)cc2)NC(=O)[C@H]2Cc3ccccc3CN2)CC1` (some centres undefined), a half-maximal response (EC50) required 0.56 µM. This EC50 and that of the molecule before are within 1.5-fold of each other.
